Format in all cases: cell-based
Assay [1] concerns Geobacillus stearothermophilus spores. The assay can be described thus: Survival of spores (growth, pH indicator change) in modulator-treated self-contained biological indicators after H2O2 sterilant exposure (Example 1). As to conditions: for percentage of self-contained biological indicators that showed observable growth (pH indicator change): 2 minutes. The procedure:
Tub-shaped spore carriers (polypropylene), similar to those described in International Publication No. WO2014/189716 with the exception that they were not coated with colloidal nanoparticles, were used. Liquid-cultured Geobacillus stearothermophilus spores (>10^6), were suspended in sterile water. Approximately 10 μL of the spore suspension was deposited onto the spore carriers and dried at room temperature. Aliquots (0 μL, 5 μL, or 10 μL, respectively) of a 0.5M sterile solution of L-homocysteine were deposited into the dried, spore-coated tub-shaped spore carrier. The homocysteine-coated tubs were dried at room temperature. Thus, the final dried coating on the carriers included at least 10^6 spores with 0, 2.5 or 5 micromoles of L-homocysteine, respectively.
FIG. 1. The outer container 12 was obtained from 3M ATTEST 1292 Rapid Biological Indicators (available from 3M Company; St. Paul, Minn.). The cap was obtained from 3M ATTEST 1261 Biological Indicators (3M Company). The nutrient medium was from 3M ATTEST 1292 ampoules with added methionine (5 g/L). Five individual self-contained biological indicators were exposed to different concentrations (listed in Table 3) of hydrogen peroxide for 2 minutes in a STERRAD NX sterilizer. After exposing them to the sterilization process, all of the self-contained biological indicators were activated by crushing the ampoule inside the outer container.

The test system is the same in assay [2]. The assay can be described thus: Resistance of self-contained biological indicators to hydrogen peroxide sterilization, glucosidase enzyme activity fluorescence readout (ENZ+). The procedure: (§1) PET film (.09 mm thick) was coated with colloidal silica as described in International Publication No. WO2014/189716, which is incorporated herein by reference in its entirety. […] Separate aqueous spore coating solutions were prepared as described in Example 1 with the amino acids shown in table 4 present in the coating solutions. Two microliter aliquots (containing at least 10^6 spores) of the respective spore coating solutions were deposited onto the silica-coated PET film, forming a series of spaced-apart spots on the film. The spore coated films were dried in a 60° C. incubator for 12 minutes. Circular discs (hereinafter, “coated carriers”) of the PET film, each disc including one of the dried spots, were punched out and were used to assemble self-contained biological indicators (BI) similar to that shown in FIG. 1 of International Publication No. WO2014/189716. The coated carriers described above were placed into the “spore carrier 135” shown in FIG. 1 of International Publication No. WO2014/189716. Each self-contained BI comprised a polycarbonate outer container, a breaker, a cap, and a cap filter. Disposed inside the outer container were a coated carrier along with an ampoule media containing the nutrient medium from 3M ATTEST 1292 Rapid Readout Biological Indicators plus 5g/L methionine (as described in Example 1).
(§2) The self-contained biological indicators with different concentrations of additives (Table 4) were exposed to hydrogen peroxide sterilization in STERRAD NX sterilizer. The sterilization processes were run by manually injecting 1.0 ml of 59% hydrogen peroxide per load, unless specified otherwise. The exposure time was varied to determine the resistance profile of self-contained BIs with different additive formulations. The BIs were activated by pressing down the cap to break the media ampoule. The activated BIs were placed in a bench-top fluorimeter (3M Company, St. Paul, Minn.) to detect fluorescence.
(§3) A self-contained BI that is not completely inactivated (i.e., not all of the spores are killed by the sterilization process) will resume cellular functions upon activation of the BI. The production of glucosidase enzyme by surviving spores is an indication that at least one of the spores have not been inactivated (killed) by the sterilization process. The glucosidase enzyme cleaves the 4-methylumbelliferyl-glucoside (MUG) releasing the fluorescent methyl umbelliferone, which is detected using a bench-top fluorimeter. Growth and proliferation of spores in the self-contained biological indicator can also be detected by a pH change, which may be detected by a color change of the pH indicator in the growth medium.
(§4) Self-contained biological indicators were prepared (with various additives listed in table 4) as described above in this Example. For each additive tested, a lower range and a higher range was used as a preliminary screen to identify additives modulated the resistance of the spores to the sterilant. Five self-contained BIs representing each condition were exposed to hydrogen peroxide sterilization in STERRAD NX sterilizer. The sterilization processes used a constant injection volume (1.0 ml of 59% hydrogen peroxide) and various times (e.g., 20 seconds to 7 minutes) of exposure to the hydrogen peroxide. The self-contained BIs were activated after exposure to the sterilization process and were monitored for fluorescence using a bench-top fluorimeter) and pH based color change (visually). […]
(§5) Self-contained biological indicators (with various additives listed in table 5) were prepared as described in Example 2. The self-contained biological indicators were exposed to hydrogen peroxide in a STERRAD NX sterilizer as described in Example 2. The self-contained BIs were activated after exposure to the sterilization process and were monitored for fluorescence using a bench-top fluorimeter and pH based color change (visually).

Assay [3] shares this test system. Briefly: Resistance of self-contained biological indicators to hydrogen peroxide sterilization, growth readout by pH colour change (GRO+). The protocol:
as §1, §2, §3, §4, §5

Where [4] appears, read: Table 4, modulator 0.01 weight percent in spore coating solution, H2O2 exposure 30 sec.
Where [5] appears, read: Table 4, modulator 0.01 weight percent in spore coating solution, H2O2 exposure 60 sec.
The mark [6] stands for this setting: Table 4, modulator 0.01 weight percent in spore coating solution, H2O2 exposure 90 sec.
Setting [7] is: Table 4, modulator 0.01 weight percent in spore coating solution, H2O2 exposure 3 min.
Setting [8] is: Table 4, modulator 0.01 weight percent in spore coating solution, H2O2 exposure 7 min.
[9] abbreviates: Table 4, modulator 0.1 weight percent in spore coating solution, H2O2 exposure 30 sec.
The mark [10] stands for this setting: Table 4, modulator 0.1 weight percent in spore coating solution, H2O2 exposure 60 sec.
[11] abbreviates: Table 4, modulator 0.1 weight percent in spore coating solution, H2O2 exposure 90 sec.
Setting [12] is: Table 4, modulator 0.1 weight percent in spore coating solution, H2O2 exposure 3 min.
[13] abbreviates: Table 4, modulator 0.1 weight percent in spore coating solution, H2O2 exposure 7 min.

In the case of `N[C@@H](CCS)C(=O)O` [L-homocysteine], the “resistance of spores to H2O2 compared to 0 micromoles of L-homocysteine” value in assay [1] (2.5 micromoles of L-homocysteine, seen with 0.6 ml and 0.8 ml of 59% H2O2) is on record as “decrease in resistance of spores”. The “percentage of self-contained biological indicators that showed observable growth (pH indicator change)” value in assay [1] (2.5 micromoles of homocysteine, 0.1 ml of 59% H2O2 (94 mg × Sec/L)) is 100%; in assay [1] (2.5 micromoles of homocysteine, 0.2 ml of 59% H2O2 (222 mg × Sec/L)), 80%; in assay [1] (2.5 micromoles of homocysteine, 0.4 ml of 59% H2O2 (458 mg × Sec/L)) it was 60%; in assay [1] (2.5 micromoles of homocysteine, 0.6 ml of 59% H2O2 (689 mg × Sec/L)), 60%; in assay [1] (2.5 micromoles of homocysteine, 0.8 ml of 59% H2O2 (842 mg × Sec/L)) it was 20%; in assay [1] (5.0 micromoles of homocysteine, 0.1 ml of 59% H2O2 (94 mg × Sec/L)) it was 100%. In addition, the “percentage of self-contained biological indicators that showed observable growth (pH indicator change)” value in assay [1] (5.0 micromoles of homocysteine, 0.2 ml of 59% H2O2 (222 mg × Sec/L)) worked out at 40%; in assay [1] (5.0 micromoles of homocysteine, 0.4 ml of 59% H2O2 (458 mg × Sec/L)), 0%; in assay [1] (5.0 micromoles of homocysteine, 0.6 ml of 59% H2O2 (689 mg × Sec/L)), 0%; in assay [1] (5.0 micromoles of homocysteine, 0.8 ml of 59% H2O2 (842 mg × Sec/L)) it was 0%. The “resistance of spores to H2O2” value in assay [1] (5.0 micromoles of L-homocysteine, all kill with 0.4 ml of 59% H2O2) is “reduced the resistance of spores significantly”.
In the case of `O=C(O)[C@@H]1CCCN1` [L-proline, reference compound], the “percentage of self-contained biological indicators positive for glucosidase enzyme activity (ENZ+)” value in assay [2] (setting [4]) was 100%; in assay [2] (setting [5]), 100%; in assay [2] (setting [6]), 100%; in assay [2] (setting [7]), 0%; in assay [2] (setting [8]) it was 0%; in assay [2] (setting [9]) it was 100%. Moreover, the “percentage of self-contained biological indicators positive for glucosidase enzyme activity (ENZ+)” value came out at 100% in assay [2] (setting [10]), 100% in assay [2] (setting [11]), 0% in assay [2] (setting [12]) and 0% in assay [2] (setting [13]). In addition, in assay [3] (Example 2 / Comparative Example 1 (Table 4), fluorescence and growth readouts), the “sensitivity of the biological indicator to the sterilization process relative to the control with no additives” value is “did not result in an increased sensitivity”. Further, the “percentage of self-contained biological indicators positive for growth (GRO+)” value in assay [3] (setting [4]) was found to be 100%; in assay [3] (setting [5]), 100%; in assay [3] (setting [6]) it was 100%; in assay [3] (setting [7]), 0%; in assay [3] (setting [8]), 0%; in assay [3] (setting [9]), 100%. The “percentage of self-contained biological indicators positive for growth (GRO+)” value was determined as 100% in assay [3] (setting [10]), 100% in assay [3] (setting [11]), 0% in assay [3] (setting [12]) and 0% in assay [3] (setting [13]).

The record behind these values is patent publication US20210038753A1, “BIOLOGICAL STERILIZATION INDICATOR WITH STERILANT RESISTANCE MODULATOR” (3M INNOVATIVE PROPERTIES COMPANY, priority 2014, published 2021).
